Experimental data published in ChEMBL document CHEMBL1130455, “Synthesis and antirheumatic activity of novel tetrahydro-6-quinolineacetic acid derivatives” (1997).

Legend:
Format in all cases: functional
Rattus norvegicus [1] = test: Inhibitory effect on adjuvant arthritis in rats at a dose of 25.0 mg/kg (the value is obtained by comparison between the non-injected paw volumes of the arthritic and control).; settings: for inhibition in vivo at 25 mg/kg: Rattus norvegicus
Rattus norvegicus [2] = test: Inhibitory effect on adjuvant arthritis in rats at a dose of 12.5 mg/kg (the value is obtained by comparison between the non-injected paw volumes of the arthritic and control)
Mus musculus [3] = test: Inhibitory effect on vascular permeability in mice [inhibitory rate of compound 50 mg/kg administered perorally]/[inhibitory rate of diclofenac-Na 25 mg/kg administered perorally]
Mus musculus [4] = test: Inhibitory effect on vascular permeability in mice [inhibitory rate of compound 100 mg/kg administered perorally]/[inhibitory rate of diclofenac-Na 25 mg/kg administered perorally]
Rattus norvegicus [5] = organism: Rattus norvegicus; test: The suppression of calcium release from bone stimulated with IL1-beta in vitro at a concentration of 0.4 ug/mL expressed as percent inhibition of bone resorption
Rattus norvegicus [6] = organism: Rattus norvegicus; test: The suppression of calcium release from bone stimulated with PTH in vitro at a concentration of 2.0 ug/mL expressed as percent inhibition of bone resorption.
Rattus norvegicus [7] = test: Inhibitory effect on adjuvant arthritis in rats at a dose of 12.5 mg/kg (the value is obtained by comparison between the non-injected paw volumes of the arthritic and control).
Rattus norvegicus [8] = test: Bone damage score on day 27(the result of radiolgic analysis of non-injected paws on day 27) the bone destruction advances in the articular of adjuvant arthritic rat at a dose of 25 mg/kg
Rattus norvegicus [9] = organism: Rattus norvegicus; test: The suppression of calcium release from bone stimulated with PTH in vitro at a concentration of 10.0 ug/mL expressed as percent inhibition of bone resorption
Rattus norvegicus [10] = organism: Rattus norvegicus; test: The suppression of calcium release from bone stimulated with IL1-beta in vitro at a concentration of 2.0 ug/mL expressed as percent inhibition of bone resorption.
Rattus norvegicus [11] = organism: Rattus norvegicus; test: The suppression of calcium release from bone stimulated with IL1-beta in vitro at a concentration of 10.0 ug/mL expressed as percent inhibition of bone resorption
Rattus norvegicus [12] = test: Inhibitory effect on adjuvant arthritis in rats at a dose of 6.3 mg/kg (the value is obtained by comparison between the non-injected paw volumes of the arthritic and control).
Rattus norvegicus [13] = organism: Rattus norvegicus; test: The suppression of calcium release from bone stimulated with PTH in vitro at a concentration of 0.4 ug/mL expressed as percent inhibition of bone resorption.
Rattus norvegicus [14] = test: Inhibitory effect on adjuvant arthritis in rats at a dose of 50 mg/kg (the value is obtained by comparison between the non-injected paw volumes of the arthritic and control)
Rattus norvegicus [15] = test: Inhibitory effect on adjuvant arthritis in rats at a dose of 10 mg/kg (the value is obtained by comparison between the non-injected paw volumes of the arthritic and control)
Rattus norvegicus [16] = test: Inhibitory effect on adjuvant arthritis in rats at a dose of 100 mg/kg (the value is obtained by comparison between the non-injected paw volumes of the arthritic and control)
Rattus norvegicus [17] = test: Bone damage score on day 27(the result of radiolgic analysis of non-injected paws on day 27) the bone destruction advances in the articular of adjuvant arthritic rat at a dose of 0.5 mg/kg
Ovis aries = organism: Ovis aries; test: In vitro inhibitory effect of anti-sheep erythrocyte IgM antibody-producing cells, (value is obtained by the number of IgM-PFC in the tested group and that in the control) at a concentration of 2*10e-6M
Rattus norvegicus [18] = test: Inhibitory effect on adjuvant arthritis in rats at a dose of 12.5 mg/kg, (the value is obtained by comparison between the non-injected paw volumes of the arthritic and control)
Rattus norvegicus [19] = test: Inhibitory effect on adjuvant arthritis in rats at a dose of 25 mg/kg, (the value is obtained by comparison between the non-injected paw volumes of the arthritic and control).
Rattus norvegicus [20] = test: Inhibitory effect on adjuvant arthritis in rats at a dose of 25 mg/kg (the value is obtained by comparison between the non-injected paw volumes of the arthritic and control).
Rattus norvegicus [21] = test: Inhibitory effect on adjuvant arthritis in rats at a dose of 25 mg/kg (the value is obtained by comparison between the non-injected paw volumes of the arthritic and control)

Compound `O=C(O)Cc1cc(Cl)c2c(c1)CC[C@H](C(F)(F)F)N2` has an inhibition in vivo at 25 mg/kg (Rattus norvegicus [1]) of 20%, an inhibition in vivo at 12.5 mg/kg (Rattus norvegicus [2]) of 3% and an inhibition ratio vs diclofenac (Mus musculus [3]) of 0.43. It also gave an inhibition ratio vs diclofenac (Mus musculus [4]) of 1.5.

With `CCC1CCc2cc(CC(=O)O)cc(Cl)c2N1` (stereo not given) the inhibition ratio vs diclofenac (Mus musculus [4]) was 1.54.

For `COc1ccc(C2CCc3cc(CC(=O)O)cc(Cl)c3N2)cc1` (stereo not given), the inhibition ratio vs diclofenac (Mus musculus [4]) was 0.62.

`O=C(O)Cc1cc(Cl)c2c(c1)CCC(c1ccccc1)N2` (stereo not given) was tested, and the inhibition ratio vs diclofenac (Mus musculus [4]) was 1.63.

`O=C(O)Cc1cc(Cl)c2c(c1)CC[C@@H](C(F)(F)F)N2` showed an Inhibition (Rattus norvegicus [5]) of 24%, an Inhibition (Rattus norvegicus [6]) of 61% and an inhibition in vivo at 12.5 mg/kg (Rattus norvegicus [7]) of 34%. The Bone damage score (Rattus norvegicus [8]) was 2.5, the Inhibition (Rattus norvegicus [9]) was 94% and the inhibition in vivo at 25 mg/kg (Rattus norvegicus [1]) was 60%. The Inhibition (Rattus norvegicus [10]) was 78%, the Inhibition (Rattus norvegicus [11]) was 97% and the inhibition in vivo at 6.3 mg/kg (Rattus norvegicus [12]) was 25%. For the same compound, the inhibition ratio vs diclofenac (Mus musculus [3]) was 1.28, the Inhibition (Rattus norvegicus [13]) was 41% and the inhibition ratio vs diclofenac (Mus musculus [4]) was 1.62.

With `O=C(O)Cc1cc(Cl)c2c(c1)CCCN2` the inhibition in vivo at 50 mg/kg (Rattus norvegicus [14]) was 20%, the inhibition in vivo at 10 mg/kg (Rattus norvegicus [15]) was 27% and the inhibition in vivo at 100 mg/kg (Rattus norvegicus [16]) was 55%. It also gave an inhibition ratio vs diclofenac (Mus musculus [4]) of 1.44.

Compound `O=C(O)Cc1ccc2c(c1)CCCN2` has an inhibition ratio vs diclofenac (Mus musculus [4]) of 1.06.

`O=C([O-])Cc1ccccc1Nc1c(Cl)cccc1Cl.[Na+]` [DICLOFENAC SODIUM] was tested, and the Bone damage score (Rattus norvegicus [17]) was 4.3.

`O=C(O)Cc1cc(Cl)c2c(c1)CCC(C(F)(F)F)N2` (stereo not given) was tested, and the Inhibition (Ovis aries) was 71%, the inhibition in vivo at 12.5 mg/kg (Rattus norvegicus [7]) was 36% and the Inhibition (Rattus norvegicus [1]; 25 mg/kg) was 46%. It also gave an inhibition in vivo at 25 mg/kg (Rattus norvegicus [1]) of 45%, an inhibition ratio vs diclofenac (Mus musculus [3]) of 0.99 and an inhibition ratio vs diclofenac (Mus musculus [4]) of 1.48.

For `CC1CCc2cc(CC(=O)O)cc(Cl)c2N1` (stereo not given), the Inhibition (Ovis aries) was 60%, the inhibition in vivo at 12.5 mg/kg (Rattus norvegicus [18]) was 42% and the inhibition in vivo at 25 mg/kg (Rattus norvegicus [19]) was 56%. For the same compound, the inhibition ratio vs diclofenac (Mus musculus [4]) was 1.94.

With `CCCC1CCc2cc(CC(=O)O)cc(Cl)c2N1` (stereo not given) the inhibition in vivo at 12.5 mg/kg (Rattus norvegicus [7]) was 32%, the inhibition in vivo at 25 mg/kg (Rattus norvegicus [20]) was 47% and the inhibition ratio vs diclofenac (Mus musculus [4]) was 1.59.

With `CC(C)C1CCc2cc(CC(=O)O)cc(Cl)c2N1` (stereo not given) the inhibition ratio vs diclofenac (Mus musculus [4]) was 1.1.

In the case of `O=C(O)Cc1cc(Cl)c2c(c1)CCC(C(=O)O)N2` (stereo not given), the inhibition ratio vs diclofenac (Mus musculus [4]) is reported as 0.

With `O=C(O)Cc1cc(Cl)c2c(c1)CCC(c1ccccc1F)N2` (stereo not given) the inhibition in vivo at 25 mg/kg (Rattus norvegicus [21]) was 19%, the inhibition in vivo at 50 mg/kg (Rattus norvegicus [14]) was 52% and the inhibition in vivo at 100 mg/kg (Rattus norvegicus [16]) was 64%. It also gave an inhibition ratio vs diclofenac (Mus musculus [4]) of 2.09.

`CC1(C)CCc2cc(CC(=O)O)cc(Cl)c2N1` was tested, and the inhibition ratio vs diclofenac (Mus musculus [4]) was 1.22.
